Reference: patent US9492471B2, “Methods of treating a disease or disorder associated with Bruton'S Tyrosine Kinase” (Celgene Avilomics Research, Inc., priority 2013, dated 2016)
Like-named read-outs stand apart in the source and are kept apart here.

How the values were obtained:
Assay in all cases: HotSpot kinase profiling
Assay type in all cases: biochemical
[1] = target: T1, BRAF (Homo sapiens, UniProt P15056)
T1 construct: purchased Reaction Biology Corp
Procedure, shortened: (§1)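 P81 filtration radiometric readout; 2 h incubation at room temperature; 0.1% phosphoric acid wash; DMSO negative control; % inhibition, mean of replicate runs.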

[2] = target: T2, EPHB4 (Homo sapiens, UniProt P54760)
T2 construct: purchased Reaction Biology Corp
T2 sequence (P54760 16-987): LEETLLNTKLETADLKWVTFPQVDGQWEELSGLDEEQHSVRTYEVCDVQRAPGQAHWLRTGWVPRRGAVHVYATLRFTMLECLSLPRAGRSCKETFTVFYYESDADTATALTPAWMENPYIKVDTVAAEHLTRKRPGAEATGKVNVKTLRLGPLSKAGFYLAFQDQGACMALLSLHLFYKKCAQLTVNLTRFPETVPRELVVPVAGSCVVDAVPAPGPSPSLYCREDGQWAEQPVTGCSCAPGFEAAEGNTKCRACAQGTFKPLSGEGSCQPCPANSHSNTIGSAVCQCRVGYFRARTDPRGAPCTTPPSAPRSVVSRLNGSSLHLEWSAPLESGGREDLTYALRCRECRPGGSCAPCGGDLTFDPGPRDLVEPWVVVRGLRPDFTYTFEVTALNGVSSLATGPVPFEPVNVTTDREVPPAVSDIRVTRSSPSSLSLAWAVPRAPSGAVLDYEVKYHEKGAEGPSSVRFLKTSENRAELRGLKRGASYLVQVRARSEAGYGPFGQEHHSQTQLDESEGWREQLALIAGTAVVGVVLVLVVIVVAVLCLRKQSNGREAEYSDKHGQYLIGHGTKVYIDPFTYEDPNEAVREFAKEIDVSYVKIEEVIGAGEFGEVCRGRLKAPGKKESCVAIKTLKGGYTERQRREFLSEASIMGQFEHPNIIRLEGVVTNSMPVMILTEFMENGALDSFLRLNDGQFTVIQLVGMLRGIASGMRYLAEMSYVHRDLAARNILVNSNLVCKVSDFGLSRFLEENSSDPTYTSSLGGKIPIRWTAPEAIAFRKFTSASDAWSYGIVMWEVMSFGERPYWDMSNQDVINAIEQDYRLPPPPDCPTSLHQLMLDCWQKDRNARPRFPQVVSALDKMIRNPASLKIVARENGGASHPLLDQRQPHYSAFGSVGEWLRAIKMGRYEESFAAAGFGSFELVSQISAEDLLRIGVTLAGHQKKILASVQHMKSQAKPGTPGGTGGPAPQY
Procedure, shortened: as §1

[3] = target: T3, BRK (Homo sapiens, UniProt Q13882)
T3 construct: purchased Reaction Biology Corp
Procedure, shortened: as §1

[4] = target: T4, PIM3 (Homo sapiens, UniProt Q86V86)
T4 construct: purchased Reaction Biology Corp
Procedure, shortened: as §1

[5] = target: T5, FLT1/VEGFR1 (Homo sapiens, UniProt P17948)
T5 construct: purchased Reaction Biology Corp
Procedure, shortened: as §1

[6] = target: T6, MEK2 (Homo sapiens, UniProt P36507)
T6 construct: purchased Reaction Biology Corp
Procedure, shortened: as §1

[7] = target: T7, MEKK1 (Homo sapiens, UniProt Q13233)
T7 construct: purchased Reaction Biology Corp
Procedure, shortened: as §1

[8] = target: T8, SLK/STK2 (Homo sapiens, UniProt Q9H2G2)
T8 construct: purchased Reaction Biology Corp
Procedure, shortened: as §1

[9] = read-out: % Enzyme Activity (relative to DMSO controls) Run 1
[10] = read-out: % Enzyme Activity (relative to DMSO controls) Run 2

T3 sequence (Q13882 whole entry): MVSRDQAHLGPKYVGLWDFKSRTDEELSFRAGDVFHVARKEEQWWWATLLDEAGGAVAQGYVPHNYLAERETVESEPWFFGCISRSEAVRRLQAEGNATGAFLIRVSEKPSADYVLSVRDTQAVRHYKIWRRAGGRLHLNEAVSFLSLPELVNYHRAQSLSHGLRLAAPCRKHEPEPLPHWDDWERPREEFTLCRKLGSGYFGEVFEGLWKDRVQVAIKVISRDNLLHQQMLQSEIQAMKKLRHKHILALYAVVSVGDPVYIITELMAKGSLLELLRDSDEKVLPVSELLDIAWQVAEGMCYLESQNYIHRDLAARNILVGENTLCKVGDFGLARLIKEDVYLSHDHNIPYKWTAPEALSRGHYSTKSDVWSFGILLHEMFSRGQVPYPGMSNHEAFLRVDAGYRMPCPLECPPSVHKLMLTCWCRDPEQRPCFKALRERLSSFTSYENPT
T6 sequence (P36507 whole entry): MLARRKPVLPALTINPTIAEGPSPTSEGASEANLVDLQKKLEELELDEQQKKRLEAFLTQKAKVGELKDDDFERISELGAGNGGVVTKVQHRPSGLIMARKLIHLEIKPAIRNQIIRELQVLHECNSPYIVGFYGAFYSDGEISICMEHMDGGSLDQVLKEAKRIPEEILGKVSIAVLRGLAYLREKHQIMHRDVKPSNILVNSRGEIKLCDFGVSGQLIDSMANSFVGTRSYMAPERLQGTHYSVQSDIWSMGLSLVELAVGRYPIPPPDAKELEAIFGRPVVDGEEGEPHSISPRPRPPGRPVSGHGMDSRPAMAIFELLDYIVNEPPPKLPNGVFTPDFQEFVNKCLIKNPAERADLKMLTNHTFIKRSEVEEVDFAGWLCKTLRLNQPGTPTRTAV
T8 sequence (Q9H2G2 whole entry): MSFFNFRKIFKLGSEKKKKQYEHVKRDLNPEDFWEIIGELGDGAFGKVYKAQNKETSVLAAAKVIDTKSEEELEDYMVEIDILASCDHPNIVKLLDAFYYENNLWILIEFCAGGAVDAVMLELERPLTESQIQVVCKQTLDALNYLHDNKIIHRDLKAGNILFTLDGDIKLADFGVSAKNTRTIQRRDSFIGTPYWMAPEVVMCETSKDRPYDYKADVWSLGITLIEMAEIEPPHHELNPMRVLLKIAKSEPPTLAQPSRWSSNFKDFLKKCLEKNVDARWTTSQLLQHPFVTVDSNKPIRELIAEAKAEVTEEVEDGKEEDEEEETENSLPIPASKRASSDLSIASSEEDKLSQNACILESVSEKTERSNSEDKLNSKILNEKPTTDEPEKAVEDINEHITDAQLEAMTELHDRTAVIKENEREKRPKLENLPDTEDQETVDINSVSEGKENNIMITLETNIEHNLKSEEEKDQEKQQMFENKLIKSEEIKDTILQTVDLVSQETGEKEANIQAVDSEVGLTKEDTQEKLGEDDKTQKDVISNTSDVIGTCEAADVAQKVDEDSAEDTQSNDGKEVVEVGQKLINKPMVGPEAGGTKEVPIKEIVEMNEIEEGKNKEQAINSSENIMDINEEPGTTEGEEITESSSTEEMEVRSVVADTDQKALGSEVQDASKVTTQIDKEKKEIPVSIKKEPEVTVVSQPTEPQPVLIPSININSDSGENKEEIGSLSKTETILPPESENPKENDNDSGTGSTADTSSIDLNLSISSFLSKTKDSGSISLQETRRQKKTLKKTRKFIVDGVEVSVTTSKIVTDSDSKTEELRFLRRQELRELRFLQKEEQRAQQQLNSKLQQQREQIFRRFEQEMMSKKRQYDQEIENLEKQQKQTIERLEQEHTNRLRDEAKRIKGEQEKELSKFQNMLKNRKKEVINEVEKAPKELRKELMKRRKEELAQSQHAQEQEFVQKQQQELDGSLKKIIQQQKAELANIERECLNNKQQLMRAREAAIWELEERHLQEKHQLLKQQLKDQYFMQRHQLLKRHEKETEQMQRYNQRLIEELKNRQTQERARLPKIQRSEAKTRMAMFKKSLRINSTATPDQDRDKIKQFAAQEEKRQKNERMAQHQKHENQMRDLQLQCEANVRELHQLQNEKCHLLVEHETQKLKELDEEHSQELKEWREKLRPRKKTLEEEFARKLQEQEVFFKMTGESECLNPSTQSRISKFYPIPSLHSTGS
T1 sequence (P15056 whole entry): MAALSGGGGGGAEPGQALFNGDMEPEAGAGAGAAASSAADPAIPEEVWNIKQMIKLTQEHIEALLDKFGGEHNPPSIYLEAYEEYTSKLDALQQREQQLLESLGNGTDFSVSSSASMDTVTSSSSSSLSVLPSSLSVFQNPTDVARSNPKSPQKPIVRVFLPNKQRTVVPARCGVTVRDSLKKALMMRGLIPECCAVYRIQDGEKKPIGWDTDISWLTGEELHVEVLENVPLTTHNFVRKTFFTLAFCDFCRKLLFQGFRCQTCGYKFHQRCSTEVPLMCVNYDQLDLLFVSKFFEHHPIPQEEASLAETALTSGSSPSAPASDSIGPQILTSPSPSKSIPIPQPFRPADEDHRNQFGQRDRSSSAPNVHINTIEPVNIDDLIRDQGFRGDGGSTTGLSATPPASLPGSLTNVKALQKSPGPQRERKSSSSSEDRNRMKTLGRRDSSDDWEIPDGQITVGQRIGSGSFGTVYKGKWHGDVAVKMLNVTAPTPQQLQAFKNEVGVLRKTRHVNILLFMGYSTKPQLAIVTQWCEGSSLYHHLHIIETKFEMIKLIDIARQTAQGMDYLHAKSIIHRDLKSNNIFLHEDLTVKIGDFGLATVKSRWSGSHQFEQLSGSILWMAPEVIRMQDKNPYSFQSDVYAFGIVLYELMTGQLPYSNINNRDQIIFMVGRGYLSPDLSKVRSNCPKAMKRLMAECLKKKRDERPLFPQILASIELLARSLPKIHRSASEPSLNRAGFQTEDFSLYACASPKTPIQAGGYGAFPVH
T5 sequence (P17948 27-1338): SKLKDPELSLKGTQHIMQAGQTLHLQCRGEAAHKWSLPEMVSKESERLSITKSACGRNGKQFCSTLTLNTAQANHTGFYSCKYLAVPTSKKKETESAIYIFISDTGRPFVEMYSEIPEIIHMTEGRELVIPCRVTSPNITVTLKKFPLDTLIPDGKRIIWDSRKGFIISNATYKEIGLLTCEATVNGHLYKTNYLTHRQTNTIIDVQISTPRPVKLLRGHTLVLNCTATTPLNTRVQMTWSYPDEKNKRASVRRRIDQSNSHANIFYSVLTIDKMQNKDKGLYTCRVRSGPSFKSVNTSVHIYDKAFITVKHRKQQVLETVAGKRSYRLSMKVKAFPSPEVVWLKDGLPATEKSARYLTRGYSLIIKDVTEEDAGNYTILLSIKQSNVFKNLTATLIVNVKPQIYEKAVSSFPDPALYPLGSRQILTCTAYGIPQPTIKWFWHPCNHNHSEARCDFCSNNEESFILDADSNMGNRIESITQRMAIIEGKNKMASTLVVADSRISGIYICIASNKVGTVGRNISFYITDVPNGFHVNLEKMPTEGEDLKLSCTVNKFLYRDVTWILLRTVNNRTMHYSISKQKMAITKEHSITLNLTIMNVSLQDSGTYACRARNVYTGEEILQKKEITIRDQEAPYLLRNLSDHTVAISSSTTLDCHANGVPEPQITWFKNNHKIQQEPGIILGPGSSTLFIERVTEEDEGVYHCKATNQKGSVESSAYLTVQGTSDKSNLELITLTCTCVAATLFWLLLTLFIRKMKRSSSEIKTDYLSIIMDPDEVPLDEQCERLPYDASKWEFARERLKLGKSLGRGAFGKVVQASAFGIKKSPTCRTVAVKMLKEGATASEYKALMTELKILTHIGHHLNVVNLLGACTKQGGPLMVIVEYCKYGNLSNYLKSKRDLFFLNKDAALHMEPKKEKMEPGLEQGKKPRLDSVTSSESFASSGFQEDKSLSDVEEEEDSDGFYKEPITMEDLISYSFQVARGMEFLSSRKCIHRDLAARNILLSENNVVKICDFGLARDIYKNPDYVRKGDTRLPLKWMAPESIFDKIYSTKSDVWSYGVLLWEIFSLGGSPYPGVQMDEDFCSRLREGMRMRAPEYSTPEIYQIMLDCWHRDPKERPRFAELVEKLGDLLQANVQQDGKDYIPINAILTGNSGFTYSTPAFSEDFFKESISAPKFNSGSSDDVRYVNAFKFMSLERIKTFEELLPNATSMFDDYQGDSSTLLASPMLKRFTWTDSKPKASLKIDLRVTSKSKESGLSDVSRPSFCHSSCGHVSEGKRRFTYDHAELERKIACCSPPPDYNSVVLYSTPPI

C=CC(=O)Nc1cccc(Nc2nc(Nc3ccc(OCCOC)c(F)c3)ncc2F)c1 [Compound 2]
inhibition at 3 µM [1]: 0.04% | remaining activity at 3 µM [1, 9]: 101% | remaining activity at 3 µM [1, 10]: 99.1% | inhibition at 3 µM [2]: 18.6% | remaining activity at 3 µM [2, 9]: 81.2% | remaining activity at 3 µM [2, 10]: 81.5% | inhibition at 3 µM [3]: 75% | remaining activity at 3 µM [3, 9]: 25.1% | remaining activity at 3 µM [3, 10]: 25% | inhibition at 3 µM [4]: -1.83% | remaining activity at 3 µM [4, 9]: 104% | remaining activity at 3 µM [4, 10]: 100% | inhibition at 3 µM [5]: 18.6% | remaining activity at 3 µM [5, 9]: 83.6% | remaining activity at 3 µM [5, 10]: 79.2% | inhibition at 3 µM [6]: -5.66% | remaining activity at 3 µM [6, 9]: 106% | remaining activity at 3 µM [6, 10]: 105% | inhibition at 3 µM [7]: -14.7% | remaining activity at 3 µM [7, 9]: 113% | remaining activity at 3 µM [7, 10]: 117% | inhibition at 3 µM [8]: 24.9% | remaining activity at 3 µM [8, 9]: 74.9% | remaining activity at 3 µM [8, 10]: 75.3%
